Molecules are shown by their SMILES.

Experiment [1] has as its target T1, BCDIN3D (Homo sapiens, UniProt Q7Z5W3).
T1 sequence (Q7Z5W3 1-292): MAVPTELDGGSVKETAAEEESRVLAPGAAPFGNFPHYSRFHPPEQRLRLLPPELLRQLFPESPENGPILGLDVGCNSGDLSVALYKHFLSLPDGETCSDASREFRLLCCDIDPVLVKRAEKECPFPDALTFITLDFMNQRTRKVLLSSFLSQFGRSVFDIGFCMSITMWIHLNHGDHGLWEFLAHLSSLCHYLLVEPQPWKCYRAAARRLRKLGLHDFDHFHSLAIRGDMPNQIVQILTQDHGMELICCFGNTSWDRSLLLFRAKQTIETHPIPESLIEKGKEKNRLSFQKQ
Description: BCDIN3D IC50 RFMS (RapidFire) assay with mini-helix. It is filed as biochemical. The following applies: 25 nM enzyme. As for the experimental part:
The following General Methods details the assay conditions for the Biological assays.
BCDIN3D IC50 RFMS Assay with Mini-Helix
The enzymatic assay was performed in a 384-well polypropylene plate in assay buffer with 25 mM Tris pH 8.0, 10 mM DTT, 1 mM EDTA, 0.03% BSA in a final assay volume of 20 μL. The enzyme with a final concentration of 25 nM was pre-incubated with the respective compound at 1% DMSO final assay concentration over 10 min at room temperature. The reaction was initiated by addition of 0.2 μM final assay concentration of mini-helix and 6 μM final concentration of SAM as substrates. After a 1 hr incubation at 37° C., the reaction was terminated with 40 μL of stop solution of 7.5% trichloroactetic acid in water containing 112.5 nM D4-SAH and 30 nM ^13C10-SAH used as internal standards. The SAH product concentrations as well as both internal standards were analyzed by a RapidFire High Throughput Mass Spectrometry System (Agilent Technologies, Santa Clara, Calif.) using an AP14000 triple quadrupole mass spectrometer (AB Sciex Framingham, Mass.).

Experiment [2] has as its target T1, BCDIN3D. In words: BCDIN3D InCellPulse thermal stability assay in transfected A549 cells. Particulars: heat shock 58° C. 15 min. It is filed as cell-based. The protocol:
BCDIN3D InCellPulse™ Assay
The thermal stability assay was performed with lipofectamine 3000 transiently transfected A549 using the plasmid pICP-ePL-BCDIN3 Da. This plasmid encodes for BCDIN3D N-terminally fused to a Prolabel (ePL), complementing a split β-Galactosidase Enzyme System InCELL Pulse Technology (InCELL Hunter Detection Kit, DiscoverX/Eurofins, cat: 96-0079L). 20 μl A549 cells (1500 cell/well) were added with a multidrop device to compounds to a final DMSO concentration of 0.6% in 384-well polypropylene plate format in IMDM medium and pre-incubated with the compounds for 1 h at 37° C. and 5% CO2. Subsequently, a heat shock was applied to the entire sealed plate in a 58° C. water bath for 15 min. The plates were cooled to RT, spun down and 25 μl/well of EA Detection Solution at 3.3× (InCELL Hunter Detection Kit) was added per well. 21 μl of the mixture was added to a black 384-well measurement plate (Corning, PS, black, Flat Bottom, #3575), mix for 30 minutes on a plate shaker at RT. Finally, the luminescence was measured with a Perkin Elmer EnVision with 0.2 s measurement time in luminescence mode.

Where [3] appears, read: mini-helix 0.2 μM and SAM 6 μM as substrates, 1 hr at 37° C.
Where [4] appears, read: A549 cells transiently transfected with ePL-BCDIN3D, 1 h pre-incubation.
Where [5] appears, read: mini-helix substrate 0.2 μM, SAM 6 μM.
The mark [6] stands for this setting: transiently transfected A549 cells.

As usually defined, the IC50 is the midpoint of a concentration-inhibition curve. Low readings indicate greater potency in that assay, high ones weaker potency in that assay. As for `Cc1ccc(CNc2nc(NC3CCCCC3N)nc3c2cnn3C)cc1Cl` (centres unmarked) [Compound 1.34, 6-N-(2-aminocyclohexyl)-4-N-[(3-chloro-4-methylphenyl)methyl]-1-methylpyrazolo[3,4-d]pyrimidine-4,6-diamine], the half-maximal inhibitory concentration (IC50) in experiment [1] (setting [3]) is 1.14 µM; in experiment [2] (setting [4]), 1.41 µM.
In the same order, the values of `Cn1ncc2c(Nc3ccc(C(F)(F)F)nc3)nc(NCC3(N)CCOCC3)nc21` [Compound 1.35, 6-N-[(4-aminooxan-4-yl)methyl]-1-methyl-4-N-[6-(trifluoromethyl)pyridin-3-yl]pyrazolo[3,4-d]pyrimidine-4,6-diamine] are 3.95 µM and 7.88 µM.
Turning to `Cn1ncc2c(Nc3ccc(C(F)(F)F)cc3)nc(N[C@H]3COC[C@H]3N)nc21` [Compound 1.36, N6-[(3R,4S)-4-aminotetrahydrofuran-3-yl]-1-methyl-N4-[4-(trifluoromethyl)phenyl]pyrazolo[3,4-d]pyrimidine-4,6-diamine], the IC50 in experiment [1] (setting [3]) stood at 5.66 µM; in experiment [2] (setting [4]) it was 10.6 µM.
In the same order, the values of `Cc1nn(C)c2nc(NCC(C)(C)N)cc(NCc3cccc(C(F)(F)F)c3)c12` [Compound 1.38, 6-N-(2-Amino-2-methylpropyl)-1,3-dimethyl-4-N-[[3-(trifluoromethyl)phenyl]methyl]pyrazolo[3,4-b]pyridine-4,6-diamine] are 8.63 µM and 4 µM.
For the compound `Cc1ccc(CNc2nc(NCC3(N)CC3)nc3c2cnn3C)cc1Cl` [Compound 2.01, 6-N-[(1-Aminocyclopropyl)methyl]-4-N-[(3-chloro-4-methylphenyl)methyl]-1-methylpyrazolo[3,4-d]pyrimidine-4,6-diamine], the IC50 amounted to 0.275 µM in experiment [1] (setting [5]) and 0.707 µM in experiment [2] (setting [6]).
Turning to `Cn1ncc2c(NCc3ccc(F)c(Cl)c3)nc(NCC3(N)CC3)nc21` [Compound 2.02, 6-N-[(1-Aminocyclopropyl)methyl]-4-N-[(3-chloro-4-fluorophenyl)methyl]-1-methylpyrazolo[3,4-d]pyrimidine-4,6-diamine], the IC50 in experiment [1] (setting [5]) was determined as 0.505 µM; in experiment [2] (setting [6]), 1.91 µM.
In the same order, the values of `Cn1ncc2c(Nc3ccc(C(F)(F)F)c(F)c3)nc(NCC3(N)CC3)nc21` [Compound 2.03, N6-[(1-aminocyclopropyl)methyl]-N4-[3-fluoro-4-(trifluoromethyl)phenyl]-1-methyl-pyrazolo[3,4-d]pyrimidine-4,6-diamine] are 0.0207 µM and 0.282 µM.
In the same order, the values of `COc1ccc(Nc2nc(NCC3(N)CC3)nc3c2cnn3C)cc1Cl` [Compound 2.04, 6-N-[(1-aminocyclopropyl)methyl]-4-N-(3-chloro-4-methoxyphenyl)-1-methylpyrazolo[3,4-d]pyrimidine-4,6-diamine] are 0.0608 µM and 1.8 µM.
In the same order, the values of `Cn1ncc2c(Nc3ccc(F)cc3F)nc(NCC3(N)CC3)nc21` [Compound 2.05, 6-N-[(1-aminocyclopropyl)methyl]-4-N-(2,4-difluorophenyl)-1-methylpyrazolo[3,4-d]pyrimidine-4,6-diamine] are 1.67 µM and 5.05 µM.
On to `Cn1ncc2c(Nc3cccc(C(F)(F)F)c3)nc(NCC3(N)CC3)nc21` [Compound 2.06, 6-N-[(1-aminocyclopropyl)methyl]-1-methyl-4-N-[3-(trifluoromethyl)phenyl]pyrazolo[3,4-d]pyrimidine-4,6-diamine], for which the half-inhibitory concentration (IC50) in experiment [1] (setting [5]) was determined as 0.509 µM; in experiment [2] (setting [6]), 2.21 µM.
`Cn1ncc2c(Nc3cccc(C(F)F)c3)nc(NCC3(N)CC3)nc21` [Compound 2.07, 6-N-[(1-aminocyclopropyl)methyl]-4-N-[3-(difluoromethyl)phenyl]-1-methylpyrazolo[3,4-d]pyrimidine-4,6-diamine]: the IC50 in experiment [1] (setting [5]) turned out to be 0.443 µM; in experiment [2] (setting [6]) it was 4.1 µM.
Regarding `Cn1ncc2c(Nc3ccc(F)cc3)nc(NCC3(N)CC3)nc21` [Compound 2.08, 6-N-[(1-aminocyclopropyl)methyl]-4-N-(4-fluorophenyl)-1-methylpyrazolo[3,4-d]pyrimidine-4,6-diamine], the IC50 in experiment [1] (setting [5]) came out at 0.242 µM; in experiment [2] (setting [6]), 2.72 µM.
The corresponding values for `Cc1ccc(Nc2nc(NCC3(N)CC3)nc3c2cnn3C)cc1Cl` [Compound 2.09, 6-N-[(1-aminocyclopropyl)methyl]-4-N-(3-chloro-4-methylphenyl)-1-methylpyrazolo[3,4-d]pyrimidine-4,6-diamine] are 0.0398 µM and 0.602 µM.
The corresponding values for `Cn1ncc2c(Nc3cccnc3)nc(NCC3(N)CC3)nc21` [Compound 2.10, 6-N-[(1-aminocyclopropyl)methyl]-1-methyl-4-N-pyridin-3-ylpyrazolo[3,4-d]pyrimidine-4,6-diamine] are 8.68 µM and 15.7 µM.
With `Cn1ncc2c(Nc3ccccc3)nc(NCC3(N)CC3)nc21` [Compound 2.11, 6-N-[(1-aminocyclopropyl)methyl]-1-methyl-4-N-phenylpyrazolo[3,4-d]pyrimidine-4,6-diamine], the IC50 in experiment [1] (setting [5]) was 0.49 µM; in experiment [2] (setting [6]), 2.89 µM.
In the same order, the values of `Cn1ncc2c(NCc3cccc(Br)c3)nc(NCC3(N)CC3)nc21` [Compound 2.12, 6-N-[(1-aminocyclopropyl)methyl]-4-N-[(3-bromophenyl)methyl]-1-methylpyrazolo[3,4-d]pyrimidine-4,6-diamine] are 0.588 µM and 1.49 µM.
The corresponding values for `Cn1ncc2c(NCc3ccc(Br)cc3)nc(NCC3(N)CC3)nc21` [Compound 2.13, 6-N-[(1-aminocyclopropyl)methyl]-4-N-[(4-bromophenyl)methyl]-1-methylpyrazolo[3,4-d]pyrimidine-4,6-diamine] are 0.369 µM and 1.61 µM.
The corresponding values for `Cn1ncc2c(Nc3ccc(F)cc3Cl)nc(NCC3(N)CC3)nc21` [Compound 2.14, 6-N-[(1-aminocyclopropyl)methyl]-4-N-(2-chloro-4-fluorophenyl)-1-methylpyrazolo[3,4-d]pyrimidine-4,6-diamine] are 5.96 µM and 9.59 µM.
Take `Cn1ncc2c(Nc3ccc(Cl)cc3F)nc(NCC3(N)CC3)nc21` [Compound 2.15, 6-N-[(1-aminocyclopropyl)methyl]-4-N-(4-chloro-2-fluorophenyl)-1-methylpyrazolo[3,4-d]pyrimidine-4,6-diamine]: the IC50 in experiment [1] (setting [5]) came out at 0.446 µM; in experiment [2] (setting [6]), 1.63 µM.
For `Cn1ncc2c(Nc3cc(F)cc(Cl)c3)nc(NCC3(N)CC3)nc21` [Compound 2.16, 6-N-[(1-aminocyclopropyl)methyl]-4-N-(3-chloro-5-fluorophenyl)-1-methylpyrazolo[3,4-d]pyrimidine-4,6-diamine], the IC50 in experiment [1] (setting [5]) amounted to 0.452 µM; in experiment [2] (setting [6]), 0.959 µM.
The corresponding values for `Cn1ncc2c(Nc3ccc(Cl)c(C#N)c3)nc(NCC3(N)CC3)nc21` [Compound 2.17, 5-[[6-[(1-aminocyclopropyl)methylamino]-1-methyl-pyrazolo[3,4-d]pyrimidin-4-yl]amino]-2-chloro-benzonitrile] are 0.44 µM and 2.56 µM.
In the case of `Cn1ncc2c(NC34CC(c5ccccc5)(C3)C4)nc(NCC3(N)CC3)nc21` [Compound 2.18, N6-[(1-aminocyclopropyl)methyl]-1-methyl-N4-(1-phenyl-3-bicyclo[1.1.1]pentanyl)pyrazolo[3,4-d]pyrimidine-4,6-diamine], the figures for the 50% inhibitory concentration (IC50) in experiment [1] (setting [5]) and in experiment [2] (setting [6]) were 0.111 µM and 0.207 µM, respectively.

For the origin of these results see patent publication US20220370453A1 (Storm Therapeutics Ltd, priority 2019, published 2022).
